A short description of data set [1]: Solubility in water. Type of data set: physicochemical.
Data set [2] deals with C. albicans group I intron precursor. Nature of the data set: Inhibition of C. albicans group I intron precursor self-splicing. To be noted: read-out: IC50 for inhibition of precursor self-splicing; 2 mM Mg2+ (H2Mg buffer: 50 mM Na HEPES pH 7.5, 135 mM KCl), 1 mM nucleotide bulk yeast tRNA competitor, 100 µM GMP; four parameter logistic fit. The data set is classed as biochemical, Candida albicans.

In the case of `NCCc1c[nH]c2ccccc12` [Compound 4, tryptamine], the solubility in water entry in data set [1] is recorded as “not soluble in water”.

One may read the IC50 as the concentration that inhibits the measured activity by half. As for `N=C(N)c1ccc(OCCCCCOc2ccc(C(=N)N)cc2)cc1` [Pentamidine, pentamidine], the IC50 in data set [2] amounted to 200 ± 35 µM.

On to `c1ccc(Cn2cc(CN(Cc3cn(Cc4ccccc4)nn3)Cc3cn(Cc4ccccc4)nn3)nn2)cc1` [TBTA, tris(benzyltriazolylmethyl)amine], for which the IC50 in data set [2] is greater than 5000 µM.

The record behind these values is article PMC2777746 (ACS chemical biology, 2009).
